Measurements: patent publication US20090011442A1, “TB diagnostics based on mycobacterium tuberculosis excretory secretory antigens and their specific immunoglobulins” (priority 2007, published 2009)

System: M. tb H37Ra bacilli
Type: cell-based, Mycobacterium tuberculosis H37Ra

Row | SMILES | MIC (mg/l)/Resistance Ratio | Resistance ratio
1 | CC[C@@H](CO)NCCN[C@@H](CC)CO [EMB, ethambutol] | >8 mg/L | 
2 | NNC(=O)c1ccncc1 [INH, isoniazid] | >1 mg/L | 
3 | NC(=O)c1cnccn1 [PZA] | >100 mg/L | 
4 | CO[C@H]1/C=C/O[C@@]2(C)Oc3c(C)c(O)c4c(O)c(c(/C=N/N5CCN(C)CC5)c(O)c4c3C2=O)NC(=O)/C(C)=C\C=C\[C@H](C)[C@H](O)[C@@H](C)[C@@H](O)[C@@H](C)[C@H](OC(C)=O)[C@@H]1C [RMP, rifampicin] | >64 mg/L | 
5 | [H]/N=C(/N)N[C@H]1[C@H](O)[C@@H](O)[C@H](O[C@@H]2O[C@@H](C)[C@](O)(C=O)[C@H]2O[C@@H]2O[C@@H](CO)[C@H](O)[C@@H](O)[C@@H]2NC)[C@@H](N/C(N)=N\[H])[C@@H]1O [SM, streptomycin] |  | ratio > 8
